These results are taken from patent publication US20160251342A1, “ALDEHYDE DERIVATIVE OF SUBSTITUTED OXAZOLIDINONES” (WANBURY LTD., priority 2012, published 2016).

A short description of data set [1]: Intravenous and oral pharmacokinetics in Wistar rats. The class given is in vivo. To be noted: after i.v. administration, first measurement point. The procedure:
On the day before administration of the substance, a catheter for obtaining blood is implanted in the jugular vein of the experimental animals (male Wistar rats, body weight 200-250 g) under Isofluran® anesthesia.
Blood samples (8-12 time points) are taken through the catheter sequentially over the course of 24 h after administration of the substance. The administration volume is 10 ml/kg for oral and 1 ml/kg for IV in male Wistar rats. Intravenous administration is via a formulation of 2% N—N Dimethyl acetamide/ethanol 10%/PEG400(30%)/water for IV injection (58%) and via Tween80/PEG400/sterile water in the case of oral administration. […]
Plasma is obtained by centrifuging the samples in heparinized tubes. […] After centrifugation, compound formula (B) and, where appropriate, known cleavage products of the compound formula (B) in the supernatant are determined quantitatively using a suitable LC/MS-MS method.
The measured plasma concentrations are used to calculate pharmacokinetic parameters of the test substance and of the active ingredient compound (A) liberated there from, such as AUC, Cmax, T½ (half-life) and CL (clearance). […]
The plasma concentration/time plots determined are used to calculate the pharmacokinetic parameters such as AUC, Cmax, MRT (mean residence time), t½ (half life) and CL (clearance) employing the validated pharmacokinetic calculation programs. […]

A short description of data set [2]: Stability in simulating gastric fluid (SGF). Format: physicochemical. The settings on record: SGF pH 2.2, up to 120 min. The protocol:
On completion of incubation period, the solution is centrifuged and supernatant is taken. To the supernatant, ice cold acetonitrile containing IS is added, vortexed and injected into LCMS/MS.
API 4000, ESI Agilent 1100 column: Gemini Nx 100 mm×4.6 mm 5.μ; column temperature: 30° C.; eluent A: 0.1% formic acid in water, eluent B: acetonitrile; gradient: 0-2.5 min 95% A, 5% B; 2.5-2.6 min 5% A, 95% B; 2.6-4.2 min 95% A, 5% B; flow rate: 0.8 ml/min; ESI. Q1:464.098, Q3:144.255
SIF/SGF: 2.38 g of SIF original powder (biorelavant media) is dissolved in 1 L of milliQ water. The pH of the solution is adjusted for SIF (7.4) and SGF (2.2) with 0.1N HCl. The ratios of the peak areas (F) at the respective time points in relation to the peak areas at the starting time are calculated. […] The peak area (F) is directly correlated to the amount of test compound which is quantified by the LC MS method.
In simulating intestinal and gastric fluid, the area of the formula B compared with zero minute area to 120 min.

Consider `O=CN(C[C@H]1CN(c2ccc(N3CCOCC3=O)cc2)C(=O)O1)C(=O)c1ccc(Cl)s1` [compound formula (B), 5-chloro-N-formyl-N-({(5S)-2-oxo-3-[4-(3-oxomorpholin-4-yl)phenyl]-1,3-oxazolidin-5-yl}methyl)thiophene-2-carboxamide], for which, in data set [1], the “Detectability of unchanged test substance in plasma” value is given as “no longer detectable”. For the same compound, the “Conclusion (stability in SGF)” value in data set [2] is given as “is stable”.
